Source: publication PMC10999543, “Identification of kinase modulators as host-directed therapeutics against intracellular methicillin-resistant Staphylococcus aureus” (Frontiers in Cellular and Infection Microbiology, 2024)
Like-named read-outs stand apart in the source and are kept apart here.

Legend:
[1] = system: HeLa cells; experiment: Compound screen by flow cytometry: HeLa cell count as surrogate readout of cell viability (z-scoreHeLa); assay type: cell-based, human; details: for cell count rep 1 / cell count rep 2 / cell count rep 3: PKIS compound screen raw data; for cell count rep 1 / cell count rep 2 / cell count rep 3 / z-scoreHeLa mean / z-scoreHeLa rep 1 / z-scoreHeLa rep 2 / z-scoreHeLa rep 3: HeLa cell count; for cell count rep 1 / z-scoreHeLa rep 1: replicate 1; for cell count rep 2 / z-scoreHeLa rep 2: replicate 2; for cell count rep 3 / z-scoreHeLa rep 3: replicate 3; for z-scoreHeLa mean: mean of 3 replicates
Procedure, shortened: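 The viability surrogate was the count of fixed HeLa cells by flow cytometry, converted to z-scores against DMSO controls with values deviating two-fold excluded. Before counting, cells had been infected with MRSA for 1 h and cleared of extracellular bacteria with gentamicin. They were then exposed overnight to kinase inhibitors in triplicate.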

[2] = system: intracellular MRSA; assay type: cell-based, Staphylococcus aureus; details: for %GFP+ rep 1 / %GFP+ rep 2 / %GFP+ rep 3: PKIS compound screen raw data; for %GFP+ rep 1 / %GFP+ rep 2 / %GFP+ rep 3 / z-scoreMRSA+ mean / z-scoreMRSA+ rep 1 / z-scoreMRSA+ rep 2 / z-scoreMRSA+ rep 3: MRSA-infected HeLa cells; for %GFP+ rep 1 / z-scoreMRSA+ rep 1: replicate 1; for %GFP+ rep 2 / z-scoreMRSA+ rep 2: replicate 2; for %GFP+ rep 3 / z-scoreMRSA+ rep 3: replicate 3; for z-scoreMRSA+ mean: mean of 3 replicates
Procedure, shortened: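 HeLa cells were infected with GFP-expressing MRSA (mean MOI 6.8) for 1 h, treated with 30 µg/ml gentamicin for 15 min, then incubated overnight at 37°C with kinase inhibitors and 5 µg/ml gentamicin. Flow cytometry gave % GFP-positive cells, with cell count as viability. Hits were z-score ≤ -2 (infection) and ≥ -3 (count) versus DMSO.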

[3] = Yes/No: effect without cell death
[4] = PKIS compound screen, Yes/No call on z-scoreHeLa
[5] = PKIS compound screen, Yes/No call (effect without cell death)
[6] = PKIS compound screen, Yes/No call on z-scoreMRSA+

Cc1c(O)cccc1Nc1ccnc2ccc(C(F)(F)F)cc12 [GW466413A]
cell count rep 1 [1]: 3244
cell count rep 2 [1]: 2982
cell count rep 3 [1]: 4313
cell death ([1]; Yes/No call from z-scoreHeLa): No
z-scoreHeLa mean ([1]; compound screen): -0.80
z-scoreHeLa rep 1 ([1]; compound screen): -0.80
z-scoreHeLa rep 2 ([1]; compound screen): -1.02
z-scoreHeLa rep 3 ([1]; compound screen): -0.58
%GFP+ rep 1 [2]: 22.3%
%GFP+ rep 2 [2]: 22.8%
%GFP+ rep 3 [2]: 19.9%
effect ([2]; Yes/No call from z-scoreMRSA+): No
hit [2, 3]: No
z-scoreMRSA+ mean ([2]; compound screen): -0.45
z-scoreMRSA+ rep 1 ([2]; compound screen): -0.69
z-scoreMRSA+ rep 2 ([2]; compound screen): 0.0454
z-scoreMRSA+ rep 3 ([2]; compound screen): -0.69

Cc1ccnc2ccc(-c3sc(N)nc3-c3ccccn3)nc12 [GW777257X]
cell count rep 1 [1]: 3590
cell count rep 2 [1]: 3185
cell count rep 3 [1]: 3623
cell death ([1]; Yes/No call from z-scoreHeLa): No
z-scoreHeLa mean ([1]; compound screen): -0.81
z-scoreHeLa rep 1 ([1]; compound screen): -0.55
z-scoreHeLa rep 2 ([1]; compound screen): -0.86
z-scoreHeLa rep 3 ([1]; compound screen): -1.02
%GFP+ rep 1 [2]: 20.9%
%GFP+ rep 2 [2]: 19.0%
%GFP+ rep 3 [2]: 19.9%
effect ([2]; Yes/No call from z-scoreMRSA+): No
hit [2, 3]: No
z-scoreMRSA+ mean ([2]; compound screen): -0.86
z-scoreMRSA+ rep 1 ([2]; compound screen): -1.02
z-scoreMRSA+ rep 2 ([2]; compound screen): -0.88
z-scoreMRSA+ rep 3 ([2]; compound screen): -0.69

Cc1cccc(-c2nc(Nc3ccncc3)c3ccccc3n2)n1 [GW855857X]
cell count rep 1 [1]: 3133
cell count rep 2 [1]: 3003
cell count rep 3 [1]: 4517
cell death ([1]; Yes/No call from z-scoreHeLa): No
z-scoreHeLa mean ([1]; compound screen): -0.78
z-scoreHeLa rep 1 ([1]; compound screen): -0.88
z-scoreHeLa rep 2 ([1]; compound screen): -1.00
z-scoreHeLa rep 3 ([1]; compound screen): -0.46
%GFP+ rep 1 [2]: 26.0%
%GFP+ rep 2 [2]: 24.5%
%GFP+ rep 3 [2]: 21.6%
effect ([2]; Yes/No call from z-scoreMRSA+): No
hit [2, 3]: No
z-scoreMRSA+ mean ([2]; compound screen): 0.15
z-scoreMRSA+ rep 1 ([2]; compound screen): 0.17
z-scoreMRSA+ rep 2 ([2]; compound screen): 0.46
z-scoreMRSA+ rep 3 ([2]; compound screen): -0.18

Cc1cc(-c2ccc3c(c2)CC[C@@H](N[C@@H](C)c2ccccc2)C3)cnc1N [GW412617A]
cell count rep 1 [1]: 42421
cell count rep 2 [1]: 41709
cell count rep 3 [1]: 47670
z-scoreHeLa mean ([1]; PKIS compound screen): 1.94
z-scoreHeLa rep 1 ([1]; PKIS compound screen): 3.38
z-scoreHeLa rep 2 ([1]; PKIS compound screen): 1.29
z-scoreHeLa rep 3 ([1]; PKIS compound screen): 1.14
cell death [1, 4]: No
%GFP+ rep 1 [2]: 20.0%
%GFP+ rep 2 [2]: 21.4%
%GFP+ rep 3 [2]: 20.6%
z-scoreMRSA+ mean ([2]; PKIS compound screen): 0.60
z-scoreMRSA+ rep 1 ([2]; PKIS compound screen): 0.68
z-scoreMRSA+ rep 2 ([2]; PKIS compound screen): 0.86
z-scoreMRSA+ rep 3 ([2]; PKIS compound screen): 0.25
hit [2, 5]: No
effect [2, 6]: No

OCCCNc1nccc(-c2c(-c3ccc(F)cc3)nn3cc(C(F)(F)F)ccc23)n1 [GW569293E]
cell count rep 1 [1]: 13158
cell count rep 2 [1]: 40183
cell count rep 3 [1]: 38241
z-scoreHeLa mean ([1]; PKIS compound screen): -0.14
z-scoreHeLa rep 1 ([1]; PKIS compound screen): -1.06
z-scoreHeLa rep 2 ([1]; PKIS compound screen): 1.01
z-scoreHeLa rep 3 ([1]; PKIS compound screen): -0.36
cell death [1, 4]: No
%GFP+ rep 1 [2]: 17.0%
%GFP+ rep 2 [2]: 16.9%
%GFP+ rep 3 [2]: 19.3%
z-scoreMRSA+ mean ([2]; PKIS compound screen): -0.30
z-scoreMRSA+ rep 1 ([2]; PKIS compound screen): -0.27
z-scoreMRSA+ rep 2 ([2]; PKIS compound screen): -0.49
z-scoreMRSA+ rep 3 ([2]; PKIS compound screen): -0.15
hit [2, 5]: No
effect [2, 6]: No
